Consider one compound from article PMC11809180, “RA-PR058, a novel ramalin derivative, reduces BACE1 expression and phosphorylation of tau in Alzheimer’s disease mouse models” (Animal Cells and Systems, 2025).

Data set [1] deals with 5xFAD hippocampal neurons. The data set is described as follows: vGlut1-pHluorin (vG-pH) synaptic transmission assay in primary hippocampal neurons. Format: cell-based, mouse. As for the experimental part: Hippocampal CA1-CA3 regions were isolated from postnatal (0–3 d old) 5xFAD mice. For dissociation, the dissected tissues were incubated with trypsin (Sigma) and DNase (Sigma) for 10 minutes at 37 ℃, followed by gentle trituration with pipette. 4.0–5.0 × 10^4 cells were plated on poly-ornithine-coated coverslips. Cells were maintained in culture media consisting of Neurobasal™-A Medium (Gibco) supplemented with GlutaMAX™ Supplement (Gibco) and B-27™ Supplement (Gibco) in a humidified incubator set at 37 ℃ with 5% CO2. Neurons were transfected 7 days after plating and further incubated for 14–21 days in culture medium. All results are obtained from at least three independent primary cultures. […]
For optical imaging, primary cultured hippocampal neurons were transfected with vGlut1-pHluorin (vG-pH) using the Ca^2+ phosphate precipitation method, as previously described (Bae et al. ([2020])). […] Fluorescence excitation/emission and collection were achieved using a 40 × Fluar Zeiss objective lens (1.3 NA) and 500–550 nm emission and 498 nm dichroic filters (Chroma). […]
All images were analyzed using ImageJ with plugin Time Series Analyzer. Synaptic boutons were selected as oval regions of interest (diameter, 10 pixels), and the intensity of fluorescence at synapses was measured. Fluorescence traces were analyzed using Origin Pro.

For data set [2], the system named is cytochrome P450 (CYP) isoforms (CYP1A2, CYP2C9, CYP2C19, CYP2D6, and CYP3A). The data set is described as follows: Cytochrome P450 inhibition assay in human liver microsomes. Format: in vitro ADME. Particulars: 10 μM RA-PR058, 20 minutes 37 ℃, with NADPH regenerating system. As for the experimental part:
Inhibitory potentials of RA-PR058 on cytochrome P450 (CYP) isoforms (CYP1A2, CYP2C9, CYP2C19, CYP2D6, and CYP3A) were evaluated. This assay was conducted by SPMED Co., Ltd (Republic of Korea). Human liver microsomes were incubated at 37 ℃ for 20 minutes with phosphate buffer (pH 7.4), each CYP substrate (for CYP1A2: phenacetin, CYP2C9: diclofenac, CYP2C19: S-mephenytoin, CYP2D6: dextromethorphan, CYP3A: midazolam), and 10 μM of RA-PR058 in the presence of an NADPH regenerating system. The reaction was terminated by adding an acetonitrile solution containing an internal standard. Following reaction termination, samples were centrifuged, and the supernatant was injected into an LC-MS/MS system to analyze the metabolites of each substrate drug.

Take `Cl.N[C@@H](CCC(=O)NNc1ccccc1F)C(F)F` [RA-PR058, (S)-4-amino-5,5-difluoro-N'-(2-fluorophenyl)pentanehydrazide hydrochloride]: the “Recovery of synaptic transmission dysfunction” value in data set [1] (5xFAD hippocampal neurons, 10 μM RA-PR058, 100 AP at 10 Hz, did not reach statistical significance) is recorded as “partially recovered”. Moreover, the “Mean amplitude of 100AP vG-pH response” value in data set [1] (RA-PR058 treated 5xFAD hippocampal neurons, 10 Hz for 10 s, normalized to maximal NH4Cl response, mean ± SEM, n = 6, untreated 5xFAD 0.11 ± 0.01, WT 0.20 ± 0.01) is reported as 0.15 ± 0.03. The “Decrease in mean control activity of CYP isoforms” value in data set [2] is listed as 12%.
